Measured values published in patent US9708314B2, “Heterocyclic amide compound” (NISSAN CHEMICAL INDUSTRIES, LTD., priority 2013, dated 2017).

Columns and labels:
Format in all cases: in vivo
[1] = test system: Echinochloa oryzacola Vasing.; assay: Test Example 1: herbicidal activity, application before weed generation in submerged conditions; settings: Application herbicide amount 320 g/ha; Seventeenth Table
Summary of the method: (§1)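 Pre-emergence application to water surface of submerged pots (4 cm depth, alluvial soil) on sowing day, with 2.5-leaf rice transplanted; emulsion diluted to g/ha rates. Grown in greenhouse at 25–30 °C; 0–5 herbicidal/crop-effect score after three weeks.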

Monochoria vaginalis = assay: as above; settings: Application herbicide amount 320 g/ha; Seventeenth Table
Summary of the method: as §1

Scirpus juncoides = assay: as above; settings: Application herbicide amount 320 g/ha; Seventeenth Table
Summary of the method: as §1

[2] = test system: transplanted Oryza sativa; assay: Test Example 1: effect on crop, application before weed generation in submerged conditions; settings: Application herbicide amount 320 g/ha; Seventeenth Table
Summary of the method: as §1

Cyperus difformis = assay: Test Example 3: herbicidal effect by application to foliage (Wagner pot, water depth 0.1-0.5 cm); settings: Nineteenth Table; application to foliage; application herbicide amount 320 g/ha
Summary of the method: (§2)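 Visual 0–5 rating of herbicidal ratio, taken 3 weeks after foliar spray of a diluted emulsion formulation at rates expressed as g/ha. Plants had been sown in alluvial soil under 0.1–0.5 cm water and grown 14 days at 25–30 °C under glass before application.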

[3] = test system: Echinochloa crus-galli var. crus-galli; assay: as above; settings: Nineteenth Table; application to foliage; application herbicide amount 320 g/ha
Summary of the method: as §2

Leptochloa chinensis = assay: as above; settings: Nineteenth Table; application to foliage; application herbicide amount 320 g/ha
Summary of the method: as §2

[4] = test system: directly sowed Oryza sativa; assay: Test Example 3: effect on crop by application to foliage (Wagner pot, water depth 0.1-0.5 cm); settings: Nineteenth Table; application to foliage; application herbicide amount 320 g/ha
Summary of the method: as §2

SMILES	A: Echinochloa oryzicola Vasing. (herbicidal effect grade) [1]	C: Monochoria vaginalis (herbicidal effect grade) (Monochoria vaginalis)	B: Scirpus juncoides (herbicidal effect grade) (Scirpus juncoides)	a: transplanted Oryza sativa (effect on crop grade) [2]	E (herbicidal effect grade) (Cyperus difformis)	H (herbicidal effect grade) [3]	D (herbicidal effect grade) (Leptochloa chinensis)	b (effect on crop grade) [4]
CC(C)CSc1nnc2c(C(=O)Nc3nnnn3C)ccc(C(F)(F)F)n12 [2-071]	5 (Herbicidal ratio of 90% or more (almost completely withered))	5 (Herbicidal ratio of 90% or more (almost completely withered))	5 (Herbicidal ratio of 90% or more (almost completely withered))	4 (Herbicidal ratio of 70% or more and less than 90%)	5 (Herbicidal ratio of 90% or more (almost completely withered))	4 (Herbicidal ratio of 70% or more and less than 90%)	5 (Herbicidal ratio of 90% or more (almost completely withered))	3 (Herbicidal ratio of 40% or more and less than 70%)
CCC(C)Sc1nnc2c(C(=O)Nc3nnnn3C)ccc(C(F)(F)F)n12 (stereo not drawn) [2-072]	5 (Herbicidal ratio of 90% or more (almost completely withered))	5 (Herbicidal ratio of 90% or more (almost completely withered))	5 (Herbicidal ratio of 90% or more (almost completely withered))	3 (Herbicidal ratio of 40% or more and less than 70%)	5 (Herbicidal ratio of 90% or more (almost completely withered))	4 (Herbicidal ratio of 70% or more and less than 90%)	5 (Herbicidal ratio of 90% or more (almost completely withered))	1 (Herbicidal ratio of 5% or more and less than 20%)
CC(C)c1nnc2c(C(=O)Nc3nnnn3-c3ccccc3)ccc(C(F)(F)F)n12 [2-073]	4 (Herbicidal ratio of 70% or more and less than 90%)	4 (Herbicidal ratio of 70% or more and less than 90%)	3 (Herbicidal ratio of 40% or more and less than 70%)	2 (Herbicidal ratio of 20% or more and less than 40%)	5 (Herbicidal ratio of 90% or more (almost completely withered))	4 (Herbicidal ratio of 70% or more and less than 90%)	3 (Herbicidal ratio of 40% or more and less than 70%)	2 (Herbicidal ratio of 20% or more and less than 40%)
COCCNc1nnc2c(C(=O)Nc3nnnn3C)ccc(C(F)(F)F)n12 [2-074]	4 (Herbicidal ratio of 70% or more and less than 90%)	3 (Herbicidal ratio of 40% or more and less than 70%)	4 (Herbicidal ratio of 70% or more and less than 90%)	3 (Herbicidal ratio of 40% or more and less than 70%)	4 (Herbicidal ratio of 70% or more and less than 90%)	5 (Herbicidal ratio of 90% or more (almost completely withered))	5 (Herbicidal ratio of 90% or more (almost completely withered))	5 (Herbicidal ratio of 90% or more (almost completely withered))
Cn1nnnc1NC(=O)c1ccc(C(F)(F)F)n2c(N3CCOCC3)nnc12 [2-075]	5 (Herbicidal ratio of 90% or more (almost completely withered))	5 (Herbicidal ratio of 90% or more (almost completely withered))	5 (Herbicidal ratio of 90% or more (almost completely withered))	5 (Herbicidal ratio of 90% or more (almost completely withered))	5 (Herbicidal ratio of 90% or more (almost completely withered))	5 (Herbicidal ratio of 90% or more (almost completely withered))	5 (Herbicidal ratio of 90% or more (almost completely withered))	5 (Herbicidal ratio of 90% or more (almost completely withered))
Cn1nnnc1NC(=O)c1ccc(C(F)(F)F)n2c(SCc3ccccc3)nnc12 [2-076]	5 (Herbicidal ratio of 90% or more (almost completely withered))	3 (Herbicidal ratio of 40% or more and less than 70%)	4 (Herbicidal ratio of 70% or more and less than 90%)	2 (Herbicidal ratio of 20% or more and less than 40%)	4 (Herbicidal ratio of 70% or more and less than 90%)	5 (Herbicidal ratio of 90% or more (almost completely withered))	4 (Herbicidal ratio of 70% or more and less than 90%)	1 (Herbicidal ratio of 5% or more and less than 20%)
COc1ccc(CSc2nnc3c(C(=O)Nc4nnnn4C)ccc(C(F)(F)F)n23)cc1 [2-077]	5 (Herbicidal ratio of 90% or more (almost completely withered))	3 (Herbicidal ratio of 40% or more and less than 70%)	3 (Herbicidal ratio of 40% or more and less than 70%)	1 (Herbicidal ratio of 5% or more and less than 20%)	3 (Herbicidal ratio of 40% or more and less than 70%)	2 (Herbicidal ratio of 20% or more and less than 40%)	4 (Herbicidal ratio of 70% or more and less than 90%)	0 (Herbicidal ratio of 5% or less (almost no effect))
Cn1nnnc1NC(=O)c1ccc(C(F)(F)F)n2c(N3CCSCC3)nnc12 [2-078]	5 (Herbicidal ratio of 90% or more (almost completely withered))	2 (Herbicidal ratio of 20% or more and less than 40%)	4 (Herbicidal ratio of 70% or more and less than 90%)	4 (Herbicidal ratio of 70% or more and less than 90%)	3 (Herbicidal ratio of 40% or more and less than 70%)	5 (Herbicidal ratio of 90% or more (almost completely withered))	5 (Herbicidal ratio of 90% or more (almost completely withered))	4 (Herbicidal ratio of 70% or more and less than 90%)
COCCN(C)c1nnc2c(C(=O)Nc3nnnn3C)ccc(C(F)(F)F)n12 [2-079]	5 (Herbicidal ratio of 90% or more (almost completely withered))	5 (Herbicidal ratio of 90% or more (almost completely withered))	5 (Herbicidal ratio of 90% or more (almost completely withered))	4 (Herbicidal ratio of 70% or more and less than 90%)	5 (Herbicidal ratio of 90% or more (almost completely withered))	5 (Herbicidal ratio of 90% or more (almost completely withered))	5 (Herbicidal ratio of 90% or more (almost completely withered))	5 (Herbicidal ratio of 90% or more (almost completely withered))
